From patent US6432946B1, “3-aminoalkylamino-2H-1,4-benzoxazines and 3-aminoalkylamino-2H-1,4-benzothiazines: dopamine receptor subtype specific ligands” (Neurogen corporation, priority 1997, dated 2002)
Structures can show the parent of a compound that is named as a salt.

Tests used:
[1] = biological target: T1, D2 receptors (Chlorocebus aethiops, UniProt P52702); assay: Assay for D2 receptor binding activity (3H-YM 09151-2 displacement); set-up: species or system African Green monkey; settings: COS cell pellets with recombinant receptor; 0.5 nM 3H-YM 09151-2; test compounds are acid addition salts
T1 construct: expressed in transfected cells; host or cells: COS cells
Experimental: Assay for D2 and D4 Receptor Binding Activity
Pellets of COS cells containing recombinantly produced D2 or D4 receptors from African Green monkey are used for the assays. The sample is homogenized in 100 volumes (w/vol) of 0.05 M Tris HCl buffer at 4° C. and pH 7.4. The sample is then centrifuged at 30,000× g and resuspended and rehomogenized. The sample is again centrifuged as described above and the final tissue sample is frozen until use. The tissue is resuspended 1:20 (wt/vol) in 0.05 M Tris HCl buffer containing 100 mM NaCl.
Incubations are carried out at […] and contain 0.4 ml of tissue sample, 0.5 nM ^3H-YM 09151-2 (Nemonapride, cis-5-Chloro-2-methoxy-4-(methylamino)-N-(2-methyl-2-(phenylmethyl)-3-pyrrolidinyl)benzamide)and the test compound in a total incubation of 1.0 ml. Nonspecific binding is defined as that binding found in the presence of 1 mM spiperone; without further additions, nonspecific binding is less than 20% of total binding. Binding characteristics of examples of the invention for the D2 and D4 receptor subtypes are shown in Table 2 for […].

T1 sequence (P52702 whole entry): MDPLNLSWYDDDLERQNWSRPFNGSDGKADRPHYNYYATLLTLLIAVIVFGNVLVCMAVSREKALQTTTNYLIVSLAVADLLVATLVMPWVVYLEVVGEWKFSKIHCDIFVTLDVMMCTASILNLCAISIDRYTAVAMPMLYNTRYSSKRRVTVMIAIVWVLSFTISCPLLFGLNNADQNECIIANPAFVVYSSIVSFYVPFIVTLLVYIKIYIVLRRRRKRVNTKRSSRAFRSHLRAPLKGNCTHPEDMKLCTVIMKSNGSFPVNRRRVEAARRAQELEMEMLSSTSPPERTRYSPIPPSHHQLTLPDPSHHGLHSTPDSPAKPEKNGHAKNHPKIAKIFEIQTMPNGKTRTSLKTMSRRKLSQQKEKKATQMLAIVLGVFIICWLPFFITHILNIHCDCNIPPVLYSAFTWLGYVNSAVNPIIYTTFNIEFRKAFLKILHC

melting point [°C]	Ki [1] [nM]	Compound
163 to 164	–	Fc1cnc(N2CCN(CCNC3=Nc4ccccc4OC3)CC2)nc1 (as salt: fumarate) [Compound 6, 3-(1-[2-{(4-[5-Fluoropyrimidin-2-yl])piperazin-1-yl}]ethyl)amino-2H-1,4-benzoxazine fumarate]
–	> 1000	c1cnc(N2CCN(CCCCNC3=Nc4ccccc4OC3)CC2)nc1 [Compound 1, 3-(1-[4-{(4-Pyrimidin-2-yl)piperazin-1-yl}]butyl) amino-2H-1,4-benzoxazine Difumarate]
–	> 100	c1cnc(N2CCN(CCCNC3=Nc4ccccc4SC3)CC2)nc1 [Compound 4]
–	> 100	Fc1cnc(N2CCN(CCNC3=Nc4ccccc4OC3)CC2)nc1 [Compound 6, 3-(1-[2-{(4-[5-Fluoropyrimidin-2-yl])piperazin-1-yl}]ethyl)amino-2H-1,4-benzoxazine fumarate]
